Reference: PubChem BioAssay AID1259408 (Genetic Toxicology Data Bank (GENE-TOX), 2018)
The source made the active and inactive calls. The rule behind the calls is not given here.

Test system: GENE-TOX genotoxicity assays, various organisms and cells
Experiment: GENE-TOX mutagenicity studies
Details: for call: Assay Type: In vivo carcinogenicity studies
[1] = Species/Cell Type: Escherichia coli polA (W3119 vs P3478), Assay Type: Rec-assay, DNA effects (bacterial DNA repair), Assay Code: RE1T, Evaluation Type: Evaluation A (Pre-1980)
[2] = Species/Cell Type: Mammalian polychromatic erythrocytes, Assay Type: Micronucleus test, chromosome aberrations, Assay Code: MNTT, Evaluation Type: Evaluation A (Pre-1980)
[3] = Species/Cell Type: Saccharomyces cerevisiae, Assay Type: Mitotic recombination or gene conversion, Assay Code: YEH-, Evaluation Type: Evaluation A (Pre-1980)
[4] = Species/Cell Type: Salmonella typhimurium (one or more of the five standard strains: TA98, TA100, TA1535, TA1537, and TA1538), Assay Type: Histidine reverse gene mutation, Ames assay, Assay Code: SAL+*, Activation: With metabolic activation, Evaluation Type: Evaluation A (Pre-1980)
[5] = Species/Cell Type: Human, Assay Type: Sister-chromatid exchange (SCE) in vitro, Assay Code: SC1+, Evaluation Type: Evaluation B (Post-1980)
[6] = Species/Cell Type: Nonhuman, Assay Type: Sister-chromatid exchange (SCE) in vitro, Assay Code: SC2+D, Dose Response: With dose response, Evaluation Type: Evaluation B (Post-1980)
[7] = Species/Cell Type: Salmonella typhimurium (one or more of the five standard strains: TA98, TA100, TA1535, TA1537, and TA1538), Assay Type: Histidine reverse gene mutation, Ames assay, Assay Code: SAL+, Evaluation Type: Evaluation A (Pre-1980)
[8] = Species/Cell Type: Mammalian polychromatic erythrocytes, Assay Type: Micronucleus test, chromosome aberrations, Assay Code: MNTT, Evaluation Type: Evaluation B (Post-1980)
[9] = Species/Cell Type: Allium cepa, Assay Type: Chromosome aberrations, Assay Code: ALCT, Evaluation Type: Evaluation A (Pre-1980)
[10] = Species/Cell Type: Human lymphocytes, Assay Type: Sister-chromatid exchange (SCE) in vitro, Assay Code: SCLT, Evaluation Type: Evaluation B (Post-1980)
[11] = Species/Cell Type: Salmonella typhimurium (one or more of the five standard strains: TA98, TA100, TA1535, TA1537, and TA1538), Assay Type: Histidine reverse gene mutation, Ames assay, Assay Code: SALT, Evaluation Type: Evaluation A (Pre-1980)
[12] = Species/Cell Type: Salmonella typhimurium (one or more of the five standard strains: TA98, TA100, TA1535, TA1537, and TA1538), Assay Type: Histidine reverse gene mutation, Ames assay, Assay Code: SAL-, Evaluation Type: Evaluation A (Pre-1980)
[13] = Species/Cell Type: Bacillus subtilis (H17 vs M45), Assay Type: Rec-assay, spot test, DNA effects (bacterial DNA repair), Assay Code: REW+, Evaluation Type: Evaluation A (Pre-1980)

With `CC(=O)Nc1cccc2c1-c1ccccc1C2` the mutagenic call (Species/Cell Type: Escherichia coli polA (W3110 vs P3478), Assay Type: Rec-assay, DNA effects (bacterial DNA repair), Assay Code: RE2-, Evaluation Type: Evaluation A (Pre-1980)) was “inactive; negative”, the mutagenic call [1] was “no conclusion” and the mutagenic call (Species/Cell Type: Fischer rat embryo (RLV/1706) cells, Assay Type: Cell transformation, viral enhanced, Assay Code: CTR+, Evaluation Type: Evaluation A (Pre-1980)) was “active; positive”. For the same compound, the mutagenic call [2] was “no conclusion”, the mutagenic call (Species/Cell Type: Mouse (BALB/c-3T3) cells, Assay Type: Cell transformation, Assay Code: CTB+D, Dose Response: With dose response, Evaluation Type: Evaluation A (Pre-1980)) was “active; positive” and the mutagenic call (Species/Cell Type: Mouse lymphoma (L5178Y) cells, Assay Type: Forward gene mutation at the thymidine kinase (TK) locus, chromosome aberrations, Assay Code: L51+*, Activation: With metabolic activation, Evaluation Type: Evaluation A (Pre-1980)) was “active; positive”. The call (Species/Cell Type: Nonhuman, Assay Code: CCGT, Evaluation Type: Evaluation A (Pre-1980)) was “no conclusion”, the mutagenic call (Species/Cell Type: Nonhuman, Assay Type: Sister-chromatid exchange (SCE) in vitro, Assay Code: SC2T, Evaluation Type: Evaluation B (Post-1980)) was “no conclusion” and the mutagenic call (Species/Cell Type: Rat primary hepatocytes, Assay Type: Unscheduled DNA synthesis (UDS) in vitro, DNA effects, Assay Code: UDP-, Evaluation Type: Evaluation A (Pre-1980)) was “inactive; negative”. For the same compound, the mutagenic call [3] was “inactive; negative”, the mutagenic call [4] was “active; positive” and the mutagenic call (Species/Cell Type: Salmonella typhimurium, Assay Type: Forward and reverse gene mutation, host-mediated assay, Assay Code: HMA-, Evaluation Type: Evaluation A (Pre-1980)) was “inactive; negative”. The mutagenic call (Species/Cell Type: Syrian hamster embryo (SHE) cells, Assay Type: Cell transformation, clonal assay, Assay Code: CTC-, Evaluation Type: Evaluation A (Pre-1980)) was “inactive; negative”.

With `Cc1nc(N)cc2c1[nH]c1ccccc12` the mutagenic call (Species/Cell Type: Human lymphocytes, Assay Type: Sister-chromatid exchange (SCE) in vitro, Assay Code: SCL+, Evaluation Type: Evaluation B (Post-1980)) was “active; positive”, the mutagenic call [5] was “active; positive” and the mutagenic call [6] was “active; positive”.

`C` was tested, and the mutagenic call (Species/Cell Type: Nonhuman, Assay Type: Sister-chromatid exchange (SCE) in vitro, Assay Code: SC2+, Evaluation Type: Evaluation B (Post-1980)) was “active; positive”.

With `Cc1ccc2cccc([N+](=O)[O-])c2n1` the mutagenic call [7] was “active; positive”.

With `COc1cc(O)c2c(c1)C(=O)c1cc(C)cc(O)c1C2=O` the mutagenic call [4] was “active; positive”.

With `CN1CCN(CC(=O)N2c3ccccc3C(=O)Nc3cccnc32)CC1` the mutagenic call [8] was “no conclusion”.

With `Cc1cccc(O)c1` the mutagenic call [9] was “no conclusion”, the mutagenic call [10] was “no conclusion” and the mutagenic call [5] was “active; positive”. The mutagenic call (Species/Cell Type: Nonhuman, Assay Type: Sister-chromatid exchange (SCE) in vivo, Assay Code: SC3T, Evaluation Type: Evaluation B (Post-1980)) was “no conclusion”.

For `Cc1cccc2c1cc(C)c1c3ccccc3ccc21`, the mutagenic call [4] was “active; positive”.

With `CC(C)Cl` the mutagenic call [3] was “inactive; negative” and the mutagenic call [7] was “active; positive”.

For `CC(=O)NCc1nc(-c2ccc([N+](=O)[O-])o2)no1`, the mutagenic call [7] was “active; positive”.

With `Cc1ccc2cc3c(ccc4ccccc43)cc2c1` the mutagenic call [6] was “active; positive” and the mutagenic call [4] was “active; positive”.

For `CCNP(=S)(OC)O/C(C)=C/C(=O)OC(C)C` (stereo not given) (tested in a mixture with another compound), the mutagenic call [8] was “no conclusion”.

With `O=c1[nH]cc(Br)c(=O)[nH]1` the mutagenic call (Species/Cell Type: Hordeum vulgare (barley), Assay Type: Gene mutation, Assay Code: HOM+D, Dose Response: With dose response, Evaluation Type: Evaluation A (Pre-1980)) was “active; positive”, the mutagenic call [3] was “inactive; negative” and the mutagenic call (Species/Cell Type: Vicia faba, Assay Type: Chromosome aberrations, Assay Code: VIC+, Evaluation Type: Evaluation A (Pre-1980)) was “active; positive”.

In the case of `CCNC(N)=O`, the mutagenic call (Species/Cell Type: Salmonella typhimurium, Assay Type: Forward and reverse gene mutation, host-mediated assay, Assay Code: HMA+, Evaluation Type: Evaluation A (Pre-1980)) was “active; positive”.

With `CC(=O)Nc1nc(-c2cc([N+](=O)[O-])c[nH]2)cs1` the mutagenic call [11] was “no conclusion”.

`O=C(O)c1ccccc1` was tested, and the mutagenic call (Species/Cell Type: Escherichia coli WP2, Assay Type: Tryptophan reverse gene mutation, Assay Code: WP2-*, Activation: With metabolic activation, Evaluation Type: Evaluation A (Pre-1980)) was “inactive; negative”, the mutagenic call (Species/Cell Type: Escherichia coli WP2 UVRA, Assay Type: Tryptophan reverse gene mutation, Assay Code: WPU-*, Activation: With metabolic activation, Evaluation Type: Evaluation A (Pre-1980)) was “inactive; negative” and the mutagenic call [5] was “active; positive”. The mutagenic call [3] was “inactive; negative” and the mutagenic call [12] was “inactive; negative”.

With `Clc1ccc(C(c2ccc(Cl)cc2)C(Cl)(Cl)Cl)cc1` the mutagenic call (Species/Cell Type: Chinese hamster lung (V79) cells, Assay Type: Forward gene mutation at the HPRT or ouabain locus, Assay Code: V79+, Evaluation Type: Evaluation A (Pre-1980)) was “active; positive”, the mutagenic call (Species/Cell Type: Drosophila melanogaster, Assay Type: Aneuploidy, partial sex chromosome loss, chromosome aberrations, Assay Code: DAP+M, Evaluation Type: Evaluation A (Pre-1980)) was “active; positive” and the mutagenic call (Species/Cell Type: Drosophila melanogaster, Assay Type: Aneuploidy, sex chromosome gain, chromosome aberrations, Assay Code: DAGT, Evaluation Type: Evaluation A (Pre-1980)) was “no conclusion”. The mutagenic call (Species/Cell Type: Drosophila melanogaster, Assay Type: Aneuploidy, whole sex chromosome loss, chromosome aberrations, Assay Code: DACT, Evaluation Type: Evaluation A (Pre-1980)) was “no conclusion”, the mutagenic call (Species/Cell Type: Drosophila melanogaster, Assay Type: Sex-linked recessive lethal gene mutation, Assay Code: SRL-, Evaluation Type: Evaluation A (Pre-1980)) was “inactive; negative” and the mutagenic call [1] was “no conclusion”. For the same compound, the mutagenic call [2] was “no conclusion”, the mutagenic call (Species/Cell Type: Mouse, Sex: Male, Assay Type: Sperm morphology, Assay Code: SPI-, Evaluation Type: Evaluation A (Pre-1980)) was “inactive; negative” and the mutagenic call (Species/Cell Type: Nonhuman, Assay Type: Chromosome aberrations in vitro, Assay Code: CY&+, Evaluation Type: Evaluation A (Pre-1980)) was “active; positive”. For the same compound, the call (Species/Cell Type: Nonhuman, Assay Code: CCG+, Evaluation Type: Evaluation A (Pre-1980)) was “active; positive”, the mutagenic call (Species/Cell Type: Rodents, Sex: Male, Assay Type: Dominant lethal test, Assay Code: DLTT, Evaluation Type: Evaluation A (Pre-1980)) was “no conclusion” and the mutagenic call (Species/Cell Type: Saccharomyces cerevisiae, Assay Type: Mitotic recombination or gene conversion, Assay Code: YEH-*, Activation: With metabolic activation, Evaluation Type: Evaluation A (Pre-1980)) was “inactive; negative”. For the same compound, the mutagenic call [12] was “inactive; negative” and the mutagenic call (Species/Cell Type: Salmonella typhimurium, Serratia marcesens, Assay Type: Forward and reverse gene mutation, host-mediated assay, Assay Code: HM2-, Evaluation Type: Evaluation A (Pre-1980)) was “inactive; negative”.

For `O=C1c2cccc(O)c2C(=O)c2c(O)cc(CO)cc21`, the mutagenic call (Species/Cell Type: Salmonella typhimurium (one or more of the five standard strains: TA98, TA100, TA1535, TA1537, and TA1538), Assay Type: Histidine reverse gene mutation, Ames assay, Assay Code: SAL+/-*, Activation: With metabolic activation, Evaluation Type: Evaluation A (Pre-1980)) was “inactive; positive without activation, negative with activation”.

In the case of `NC(=O)N1c2ccccc2C=Cc2ccc(O)cc21`, the mutagenic call [10] was “no conclusion” and the mutagenic call (Species/Cell Type: Human, Assay Type: Sister-chromatid exchange (SCE) in vitro, Assay Code: SC1T, Evaluation Type: Evaluation B (Post-1980)) was “no conclusion”.

In the case of `O=C(CO)c1coc(=O)c2c(O)cccc12`, the mutagenic call (Species/Cell Type: Bacillus subtilis (H17 vs M45), Assay Type: Rec-assay, spot test, DNA effects (bacterial DNA repair), Assay Code: REWT, Evaluation Type: Evaluation A (Pre-1980)) was “no conclusion”.

`Cc1cc(C)cc(O)c1` was tested, and the mutagenic call [9] was “no conclusion”.

For `NOS(=O)(=O)O`, the mutagenic call (Species/Cell Type: Escherichia coli polA (W3119 vs P3478), Assay Type: Rec-assay, DNA effects (bacterial DNA repair), Assay Code: RE1+, Evaluation Type: Evaluation A (Pre-1980)) was “active; positive”.

For `CC(=O)NN`, the mutagenic call (Species/Cell Type: Mammalian polychromatic erythrocytes, Assay Type: Micronucleus test, chromosome aberrations, Assay Code: MNT+U, Dose Response: Unconfirmed positive response, Evaluation Type: Evaluation B (Post-1980)) was “active; positive”.

With `ClC(Cl)c1ccccc1` the mutagenic call [13] was “active; positive” and the mutagenic call [4] was “active; positive”.

For `CCN(Cc1ccc(CN(CC)C(=O)C(Cl)Cl)cc1)C(=O)C(Cl)Cl`, the mutagenic call (Species/Cell Type: Human, Sex: Male, Assay Type: Sperm morphology, Assay Code: SPH+, Evaluation Type: Evaluation A (Pre-1980)) was “active; positive”.

For `Oc1ccc(Cl)cc1Cl`, the mutagenic call [11] was “no conclusion”.

For `[Cl][Ge]([Cl])([Cl])[Cl]`, the mutagenic call [13] was “active; positive”.

In the case of `C[C@H](N)C(=O)c1ccccc1`, the mutagenic call (Species/Cell Type: Mammalian polychromatic erythrocytes, Assay Type: Micronucleus test, chromosome aberrations, Assay Code: MNT+, Evaluation Type: Evaluation B (Post-1980)) was “active; positive”.

`CC1(C)[C@H]2CC[C@]1(C)[C@H](O)C2` was tested, and the mutagenic call [3] was “inactive; negative” and the mutagenic call [12] was “inactive; negative”.
